Legend:
human GIP receptor = target: T1, human GIP receptor (Homo sapiens, UniProt P48546); assay: GIP binding assay; conditions: membranes of BHK cells transfected with human GIP receptor; 125I-GIP tracer; SPA
T1 construct: expressed in transfected cells; host or cells: BHK (baby hamster kidney) cells; membrane preparation
T1 sequence (P48546 22-466): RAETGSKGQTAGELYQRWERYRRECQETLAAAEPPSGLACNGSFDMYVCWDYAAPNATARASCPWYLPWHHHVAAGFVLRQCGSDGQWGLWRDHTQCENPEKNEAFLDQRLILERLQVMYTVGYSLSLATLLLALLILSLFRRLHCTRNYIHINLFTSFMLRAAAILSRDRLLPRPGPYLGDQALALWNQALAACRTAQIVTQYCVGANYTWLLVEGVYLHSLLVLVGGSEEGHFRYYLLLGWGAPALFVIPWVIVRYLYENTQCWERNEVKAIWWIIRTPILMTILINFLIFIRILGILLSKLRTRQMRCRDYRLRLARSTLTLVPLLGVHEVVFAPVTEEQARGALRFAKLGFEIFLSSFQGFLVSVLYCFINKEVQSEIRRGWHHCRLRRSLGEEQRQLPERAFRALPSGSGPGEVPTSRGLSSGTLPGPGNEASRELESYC
Description: (§1) BHK (baby hamster kidney cell line) cells are transfected with the human GIP receptor and a membrane preparation of the cells is prepared. Wheat Germ Agglutinin derivatized SPA beads containing a scintillant (WGA beads) (Amersham) bound the membranes. ^125I-GIP bound to human GIP receptor in the membranes and excited the scintillant in the WGA beads to light emission. GIP or samples binding to the receptor competed with ^125I-GIP.
(§2) All steps in the membrane preparation are kept on ice or performed at 4° C. BHK cells are harvested and centrifuged. The pellet is resuspended in homogenisation buffer (25 mM HEPES, pH=7.4, 2.5 mM CaCl2, 1.0 mM MgCl2, 250 mg/l bacitracin, 0.1 mM Pefabloc), homogenised 2×10 sec using Polytron 10-35 homogenizer (Kinematica) and added the same amount of homogenisation buffer as used for resuspension. After centrifugation (15 min at 2000×g) the supernatant is transferred to cold centrifuge tubes and centrifuged for 45 min at 40.000×g. The pellet is resuspended in homogenisation buffer, homogenised 2×10 sec (Polytron) and additional homogenisation buffer is added. The suspension is centrifuged for 45 min at 40.000×g and the pellet is resuspended in resuspension buffer (25 mM HEPES, pH=7.4, 2.5 mM CaCl2, 1.0 mM MgCl2) and homogenised 2×10 sec. (Polytron). The protein concentration is normally around 1.75 mg/ml. Stabilisation buffer (25 mM HEPES, pH=7.4, 2.5 mM CaCl2, 1.0 mM MgCl2, 1% bovine serum albumin, 500 mg/l bacitracin, 2.5 M sucrose) is added and the membrane preparation is stored at −80° C.
The GIP binding assay is carried out in opti plates (Polystyrene Microplates, Packard). 50 μl assay buffer (25 mM HEPES, pH=7.5, 2.5 mM CaCl2, 1.0 mM MgCl2, 0.003% Tween-20, 0.005% bacitracin, 0.05% sodium azide) and 5 μl GIP or test compound (in DMSO) are added to each well. 50 μl tracer (^125I-porcine GIP, 50.000 cpm) and 50 μl membranes (20 μg) containing the human GIP receptor are then added to the wells. Finally 50 μl WGA beads containing 1 mg beads are transferred to the well. The opti plates are incubated for 3.5 hours on a shaker and then settled for 8-48 hours. The opti plates are counted in a Topcounter. Non-specific binding is determined with 500 nM of GIP.

human glucagon receptor = target: T2, human glucagon receptor (Homo sapiens, UniProt P47871); assay: Glucagon binding assay (II); conditions: membranes of BHK cells transfected with human glucagon receptor; 125I-glucagon tracer; SPA
T2 construct: expressed in transfected cells; host or cells: BHK (baby hamster kidney) cells; membrane preparation
T2 sequence (P47871 26-477): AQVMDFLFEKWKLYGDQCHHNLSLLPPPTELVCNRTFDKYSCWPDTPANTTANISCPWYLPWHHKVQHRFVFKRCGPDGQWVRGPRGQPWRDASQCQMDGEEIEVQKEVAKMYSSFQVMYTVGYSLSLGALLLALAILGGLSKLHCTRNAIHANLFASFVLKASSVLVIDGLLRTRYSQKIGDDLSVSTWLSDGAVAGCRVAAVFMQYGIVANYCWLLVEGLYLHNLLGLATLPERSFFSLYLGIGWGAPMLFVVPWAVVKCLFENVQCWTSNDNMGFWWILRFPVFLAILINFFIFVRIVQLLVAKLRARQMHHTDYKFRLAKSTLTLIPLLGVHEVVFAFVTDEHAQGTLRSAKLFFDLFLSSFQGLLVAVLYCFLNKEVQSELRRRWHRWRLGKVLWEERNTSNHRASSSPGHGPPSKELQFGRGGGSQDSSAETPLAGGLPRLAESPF
Description: Glucagon Binding Assay (II)
as §1, with “human glucagon” for “human GIP”, “membranes. ^125I-glucagon” for “membranes. ^125I-GIP”, “emission. Glucagon” for “emission. GIP”, “with ^125I-glucagon.” for “with ^125I-GIP.”
as §2, with “0, 1” for “0.1”
The glucagon binding assay is carried out in opti plates (Polystyrene Microplates, Packard). 50 μL assay buffer (25 mM HEPES, pH=7.5, 2.5 mM CaCl2, 1.0 mM MgCl2, 0.003% Tween-20, 0.005% bacitracin, 0.05% sodium azide) and 5 μl glucagon or test compound (in DMSO) are added to each well. 50 μl tracer (^125I-porcine glucagon, 50.000 cpm) and 50 μl membranes (7.5 μg) containing the human glucagon receptor are then added to the wells. Finally 50 μl WGA beads containing 1 mg beads are transferred to the well. The opti plates are incubated for 4 hours on a shaker and then settled for 8-48 hours. The opti plates are counted in a Topcounter. Non-specific binding is determined with 500 nM of glucagon.

| IC50 (human GIP receptor) [nM] | IC50 (human glucagon receptor) [nM] | melting point [°C] | SMILES |
| --- | --- | --- | --- |
| 644 | 64 | – | C[C@H](NC(=O)N(Cc1ccc(C(=O)NCCC(=O)O)cc1)c1ccc(C2CCCCC2)cc1)c1ccc(Cl)cc1 [Example 1, 3-{4-[3-[1(S)-(4-Chlorophenyl)ethyl]1-(4-cyclohexylphenyl)ureidomethyl]benzoylamino}propionic acid] |
| 198 | 53 | – | O=C(O)CCNC(=O)c1ccc(CN(C(=O)Nc2cccc(Br)c2)c2ccc(C3=CCCCC3)cc2)cc1 [Example 2, 3-{4-[3-(3-Bromophenyl)-1-(4-cyclohex-1-enylphenyl)ureidomethyl]benzoylamino}propionic acid] |
| 34 | 25 | – | O=C(O)CCNC(=O)c1ccc(CN(C(=O)Nc2cccc(OC(F)(F)F)c2)c2ccc(C3=CCCCC3)cc2)cc1 [Example 3, 3-{4-[3-(3-Trifluoromethoxyphenyl)-1-(4-cyclohex-1-enylphenyl)ureidomethyl]benzoylamino}propionic acid] |
| 90 | 29 | – | O=C(O)CCNC(=O)c1ccc(CN(C(=O)Nc2cc(F)cc(C(F)(F)F)c2)c2ccc(C3CCCCC3)cc2)cc1 [Example 4, 3-{4-[1-(4-Cyclohexylphenyl)-3-(3-fluoro-5-trifluoromethylphenyl)ureidomethyl]benzoylamino}propionic acid] |
| 265 | 42 | – | O=C(O)CCNC(=O)c1ccc(CN(C(=O)Nc2cccc(Br)c2)c2ccc(C3CCCCC3)cc2)cc1 [Example 5, 3-{4-[3-(3-Bromophenyl)-1-(4-Cyclohexylphenyl)ureidomethyl]benzoylamino}propionic acid] |
| 177 | 9 | – | CS(=O)(=O)c1cc(NC(=O)N(Cc2ccc(C(=O)NCCC(=O)O)cc2)c2ccc(C3=CCCCC3)cc2)ccc1OC(F)(F)F [Example 6, 3-{4-[1-(4-Cyclohexen-1-ylphenyl)-3-(3-methanesulfonyl-4-trifluoromethoxyphenyl)ureidomethyl]benzoylamino}propionic acid] |
| 82 | 29 | – | O=C(O)CCNC(=O)c1ccc(CN(C(=O)Nc2cccc(C(F)(F)F)c2)c2ccc(C3CCCCC3)cc2)cc1 [Example 7, 3-{4-[1-(4-Cyclohexylphenyl)-3-(3-trifluoromethylphenyl)ureidomethyl]benzoylamino}propionic acid] |
| 76 | 35 | – | N#Cc1cc(NC(=O)N(Cc2ccc(C(=O)NCCC(=O)O)cc2)c2ccc(C3CCCCC3)cc2)cc(C(F)(F)F)c1 [Example 8, 3-{4-[3-(3-Cyano-5-trifluoromethylphenyl)-1-(4-cyclohexylphenyl)ureidomethyl]benzoyl-amino}propionic acid] |
| 122 | 42 | – | N#Cc1cc(NC(=O)N(Cc2ccc(C(=O)NCCC(=O)O)cc2)c2ccc(C3=CCCCC3)cc2)cc(C(F)(F)F)c1 [Example 9, 3-{4-[3-(3-Cyano-5-trifluoromethylphenyl)-1-(4-cyclohex-1-enylphenyl)ureidomethyl]benzoyl-amino}propionic acid] |
| 107 | 49 | 167.5 to 168.5 | O=C(O)CCNC(=O)c1ccc(CN(C(=O)Nc2ccc(OC(F)(F)F)c(CO)c2)c2ccc(C3CCCCC3)cc2)cc1 [Example 10, 3-{4-[1-(4-Cyclohexylphenyl)-3-(3-hydroxymethyl-4-trifluoromethoxyphenyl)ureidomethyl]benzoylamino}propionic acid] |
| 152 | 64 | – | O=C(O)CCNC(=O)c1ccc(CN(C(=O)Nc2ccc(OC(F)(F)F)c(CO)c2)c2ccc(C3=CCCCC3)cc2)cc1 [Example 11, 3-{4-[1-(4-Cyclohex-1-enylphenyl)-3-(3-hydroxymethyl-4-trifluoromethoxyphenyl)ureidomethyl]benzoylamino}propionic acid] |
